The results in this text go back to patent publication US20250188069A1, “COMPOUNDS AND METHODS FOR DEGRADING CASEIN KINASE 1 ALPHA” (PIN THERAPEUTICS, INC., priority 2022, published 2025).

The subject of one test is MV-4-11 cells. Kind of test: AML cell viability assay (RealTime-Glo). The class given is cell-based. Conditions: Homo sapiens, MV4-11; IC50 class; MV-4-11 cells, RealTime-Glo after 44 hrs of treatment (TABLE 5); read-out: Cell viability classification.
A further test has as its target CK1α (Homo sapiens, UniProt P48729+Q96SW2). Kind of test: CK1α HiBiT assay in CK1a_HiBiT_Jurkat cells. As to conditions: DC50 class, 16 hours, Nano-Glo HiBiT Lytic Detection, read-out: CK1α degradation classification. The class given is cell-based. The procedure: CK1a_HiBiT_Jurkat cells were culture in RPMI 1640 medium (Gibco, 11875093) with 10% FBS under standard tissue culture conditions. Briefly, Compounds of the present disclosure was added to 30,000 cells in a white 96-well plate (9-point dose response, top concentration […], half-log serial dilution, final DMSO concentration 0.5%) and incubated for 16 hours. CK1a level was determined in along with the Nano-Glo HiBiT Lytic Detection system [Promega N3050] with final concentration of 1 x. The luminescence was normalized to that of DMSO-treated samples. DC50 values were obtained using three-parameter non-linear regressions using Prism (GraphPad). The compounds are classified based on DC50 values as follows. • A: DC50 is less than or equal to 1×10^−7; • B: DC50 is greater than 1×10^−7 & less than or equal to 1×10^−6; • C: DC50 is greater than 1×10^−6; • NA: not calculated (no activity detected, <25% viability reduction at 1 uM)

Each structure is given as a SMILES string. Bounds are passed on as bounds.

Sequence of CK1α (P48729 whole entry): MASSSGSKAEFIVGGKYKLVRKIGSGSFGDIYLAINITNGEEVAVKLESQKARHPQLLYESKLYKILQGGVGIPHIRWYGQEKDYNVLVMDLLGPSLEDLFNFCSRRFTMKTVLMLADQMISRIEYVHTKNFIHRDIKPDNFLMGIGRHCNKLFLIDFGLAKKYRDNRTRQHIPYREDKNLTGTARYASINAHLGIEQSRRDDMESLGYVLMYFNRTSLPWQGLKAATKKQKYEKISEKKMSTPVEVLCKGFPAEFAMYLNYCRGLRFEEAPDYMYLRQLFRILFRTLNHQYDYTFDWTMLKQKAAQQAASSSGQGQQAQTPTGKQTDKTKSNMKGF
Sequence of CK1α (Q96SW2 whole entry): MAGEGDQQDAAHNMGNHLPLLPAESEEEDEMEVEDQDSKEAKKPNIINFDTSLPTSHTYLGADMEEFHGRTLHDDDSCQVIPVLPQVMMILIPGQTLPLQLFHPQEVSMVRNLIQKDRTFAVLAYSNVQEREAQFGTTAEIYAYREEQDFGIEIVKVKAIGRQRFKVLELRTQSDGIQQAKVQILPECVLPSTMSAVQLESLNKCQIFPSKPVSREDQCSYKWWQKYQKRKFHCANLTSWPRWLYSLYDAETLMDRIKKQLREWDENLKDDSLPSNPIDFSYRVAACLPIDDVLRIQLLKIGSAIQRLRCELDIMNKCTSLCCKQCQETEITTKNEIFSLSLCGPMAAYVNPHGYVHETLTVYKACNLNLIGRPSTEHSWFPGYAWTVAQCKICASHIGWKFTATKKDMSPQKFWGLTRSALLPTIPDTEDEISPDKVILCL
Sequence of CK1α (Q16531 whole entry partner): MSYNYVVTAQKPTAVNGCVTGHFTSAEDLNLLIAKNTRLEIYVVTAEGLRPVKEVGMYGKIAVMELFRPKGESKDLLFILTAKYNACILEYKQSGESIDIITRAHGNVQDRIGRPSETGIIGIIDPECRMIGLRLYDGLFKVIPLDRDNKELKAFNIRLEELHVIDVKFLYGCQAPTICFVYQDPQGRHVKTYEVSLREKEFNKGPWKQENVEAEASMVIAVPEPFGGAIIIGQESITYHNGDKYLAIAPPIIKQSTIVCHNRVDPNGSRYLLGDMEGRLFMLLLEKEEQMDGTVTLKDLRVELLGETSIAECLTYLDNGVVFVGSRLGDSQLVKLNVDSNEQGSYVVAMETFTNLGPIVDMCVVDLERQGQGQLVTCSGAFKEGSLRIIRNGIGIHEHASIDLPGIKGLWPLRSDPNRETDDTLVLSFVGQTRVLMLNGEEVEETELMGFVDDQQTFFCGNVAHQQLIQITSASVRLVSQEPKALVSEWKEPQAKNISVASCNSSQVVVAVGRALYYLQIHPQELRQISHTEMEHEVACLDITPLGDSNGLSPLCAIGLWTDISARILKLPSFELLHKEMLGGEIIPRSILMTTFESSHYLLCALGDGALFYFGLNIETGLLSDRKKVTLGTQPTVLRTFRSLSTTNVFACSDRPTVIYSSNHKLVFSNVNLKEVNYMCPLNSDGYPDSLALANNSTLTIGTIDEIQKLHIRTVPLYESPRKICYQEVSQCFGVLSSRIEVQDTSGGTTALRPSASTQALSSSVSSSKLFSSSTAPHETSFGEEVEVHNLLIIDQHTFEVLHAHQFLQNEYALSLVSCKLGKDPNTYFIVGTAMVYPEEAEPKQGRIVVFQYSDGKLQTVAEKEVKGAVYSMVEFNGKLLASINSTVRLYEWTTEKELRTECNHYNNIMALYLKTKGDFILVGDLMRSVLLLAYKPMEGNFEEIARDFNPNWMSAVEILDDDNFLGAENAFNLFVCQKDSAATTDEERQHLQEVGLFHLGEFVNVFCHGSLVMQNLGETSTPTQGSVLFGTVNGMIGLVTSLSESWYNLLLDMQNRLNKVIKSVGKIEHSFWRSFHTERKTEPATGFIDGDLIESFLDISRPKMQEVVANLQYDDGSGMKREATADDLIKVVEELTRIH

As to `O=C1CCC(N2Cc3c(cccc3N(CCC3CC3)[C@H]3CC[C@H](N4CCC(F)(F)CC4)CC3)C2=O)C(=O)N1` (some centres unmarked) [Compound 716, 3-(4-((2-cyclopropylethyl)((1r,4r)-4-(4,4-difluoropiperidin-1-yl)cyclohexyl)amino)-1-oxoisoindolin-2-yl)piperidine-2,6-dione 2,2,2-trifluoroacetate], the IC50 with MV-4-11 cells lay in the range of 100 to 1000 nM. The DC50 on CK1α was at most 100 nM.

As for `O=C1CCC(N2Cc3c(cccc3N(CCC3CC3)[C@H]3CC[C@H](NCCC(F)F)CC3)C2=O)C(=O)N1` (some centres unmarked) [Compound 643, 3-{4-[(2-cyclopropylethyl)[(1r,4r)-4-[(3,3-difluoropropyl)amino]cyclohexyl]amino]-1-oxo-3H-isoindol-2-yl}piperidine-2,6-dione; trifluoroacetic acid], in the test on MV-4-11 cells, the IC50 is under 100 nM. Moreover, the DC50 on CK1α was at most 100 nM.

For `O=C1CCC(N2Cc3c(cccc3N(CCC3CC3)[C@H]3CC[C@H](NCc4ncco4)CC3)C2=O)C(=O)N1` (some centres unmarked) [Compound 662], the IC50 with MV-4-11 cells fell in the range of 100 to 1000 nM. Moreover, the DC50 on CK1α is at most 100 nM.

For the molecule `CN(C)[C@H]1CC[C@H](N(CCC2CC2)c2cccc3c2CN(C2CCC(=O)NC2=O)C3=O)CC1` (some centres unmarked) [Compound 668, 3-{4-[(2-cyclopropylethyl)[(1r,4r)-4-(dimethylamino)cyclohexyl]amino]-1-oxo-3H-isoindol-2-yl}piperidine-2,6-dione], the IC50 in the test on MV-4-11 cells was under 100 nM. Further, the DC50 on CK1α is at most 100 nM.

As to `CC1(C)CC(CN(c2cccc3c2CN(C2CCC(=O)NC2=O)C3=O)[C@H]2CC[C@H](NCCC(F)(F)F)CC2)C1` (single isomer, unassigned) [Compound 652A, 3-(4-{[(3,3-dimethylcyclobutyl)methyl][(1s,4s)-4-[(3,3,3-trifluoropropyl)amino]cyclohexyl]amino}-1-oxo-3H-isoindol-2-yl)piperidine-2,6-dione; bis(trifluoroacetic acid)], the IC50 in the test on MV-4-11 cells was over 1000 nM. Besides, the DC50 at CK1α is over 1000 nM.

In the case of `O=C1CCC(N2Cc3c(cccc3N(CC3CC4(CCC4)C3)[C@H]3CC[C@H](NCC4(C(F)(F)F)CC4)CC3)C2=O)C(=O)N1` (some centres unmarked) [Compound 656, 3-(1-oxo-4-{[(1r,4r)-4-({[1-(trifluoromethyl)cyclopropyl]methyl}amino)cyclohexyl]({spiro[3.3]heptan-2-ylmethyl})amino}-3H-isoindol-2-yl)piperidine-2,6-dione; trifluoroacetic acid], the IC50 in the test with MV-4-11 cells lay within 100 to 1000 nM. For the same molecule, the DC50 at CK1α was 100 to 1000 nM.

Turning to `O=C1CCC(N2Cc3c(cccc3N(CCC3CC3)[C@H]3CC[C@H](NCC4CCCO4)CC3)C2=O)C(=O)N1` (some centres unmarked) [Compound 666, 3-{4-[(2-cyclopropylethyl)[(1r,4r)-4-[(oxolan-2-ylmethyl)amino]cyclohexyl]amino]-1-oxo-3H-isoindol-2-yl}piperidine-2,6-dione], the IC50 with MV-4-11 cells is under 100 nM. Moreover, at CK1α, the DC50 was at most 100 nM.

Consider `O=C1CCC(N2Cc3c(cccc3N(CC3CC4(CCC4)C3)[C@H]3CC[C@H](NCCC(F)(F)F)CC3)C2=O)C(=O)N1` (some centres unmarked) [Compound 651, 3-(1-oxo-4-{[(1r,4r)-4-[(3,3,3-trifluoropropyl)amino]cyclohexyl]({spiro[3.3]heptan-2-ylmethyl})amino}-3H-isoindol-2-yl)piperidine-2,6-dione; trifluoroacetic acid], for which the IC50 in the test with MV-4-11 cells was over 1000 nM. Moreover, the DC50 at CK1α is at most 100 nM.

In the case of `CN(CCC(F)(F)F)[C@H]1CC[C@H](N(CCC2CC2)c2cccc3c2CN(C2CCC(=O)NC2=O)C3=O)CC1` (some centres unmarked) [Compound 682], the IC50 with MV-4-11 cells is under 100 nM. For the same molecule, the DC50 at CK1α is at most 100 nM.

`O=C1CCC(N2Cc3c(cccc3N(CCC3CC3)[C@H]3CC[C@H](N[C@H]4CC[C@@H]4C(F)(F)F)CC3)C2=O)C(=O)N1` (stereo partly drawn) [Compound 675, 3-{4-[(2-cyclopropylethyl)[(1r,4r)-4-{[(1S,2S)-2-(trifluoromethyl)cyclobutyl]amino}cyclohexyl]amino]-1-oxo-3H-isoindol-2-yl}piperidine-2,6-dione; bis(trifluoroacetic acid)]: the IC50 with MV-4-11 cells was 100 to 1000 nM. The DC50 at CK1α is at most 100 nM.
